Measured values taken from ChEMBL document CHEMBL1201862, “PubChem BioAssay data set” (2004).
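Assay format: 96-well plates, 48-hour exposure. GI50 marks 50% less growth.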 Activity calls are given as the source filed them. No stated cut-off is given here; in the data, active = GI50 up to about 1.1 µM and inactive = higher.

Columns and labels:
Test in all cases: inhibition of tumour cell growth, NCI panel, 48 h
[1] = test system: EKVX
[2] = test system: Hs-578T
[3] = test system: K562
[4] = test system: SF-539
[5] = test system: NCI-H460
[6] = test system: SK-MEL-5
[7] = test system: OVCAR-8
[8] = test system: RPMI-8226
[9] = test system: SK-OV-3
[10] = test system: MDA-MB-231
[11] = test system: NCI-H226
[12] = test system: MOLT-4
[13] = test system: A498
[14] = test system: CAKI-1
[15] = test system: SK-MEL-28
[16] = test system: SR
[17] = test system: KM12
[18] = test system: MDA-N
[19] = test system: SK-MEL-2
[20] = test system: TK-10
[21] = test system: Malme-3M
[22] = test system: SF-295
[23] = test system: SNB-75
[24] = test system: UACC-257
[25] = test system: NCI-H23
[26] = test system: SN12C
[27] = test system: LOX IMVI
[28] = test system: RXF 393
[29] = test system: CCRF-CEM
[30] = test system: DU-145
[31] = test system: SW-620
[32] = test system: ACHN
[33] = test system: HCT-116
[34] = test system: UACC-62
[35] = test system: COLO 205
[36] = test system: U-251
[37] = test system: UO-31
[38] = test system: MDA-MB-435
[39] = test system: IGROV-1
[40] = test system: M14
[41] = test system: NCI/ADR-RES
[42] = test system: SNB-19
[43] = test system: NCI-H522
[44] = test system: SF-268
[45] = test system: 786-0
[46] = test system: MCF7
[47] = test system: HCC 2998
[48] = test system: BT-549
[49] = test system: OVCAR-4
[50] = test system: HOP-62
[51] = test system: OVCAR-3
[52] = test system: OVCAR-5
[53] = test system: T47D
[54] = test system: A549
[55] = test system: HCT-15
[56] = test system: PC-3
[57] = test system: HOP-92
[58] = test system: HT-29
[59] = test system: HL-60

Measured: GI50

COc1ccc2c(-c3ccc(O)cc3)c(Oc3ccc(Cl)cc3)c(=O)oc2c1
inactive: [1] 3.14 µM | [2] 5.62 µM | [3] 7.21 µM | [4] 8.26 µM | [5] 5.2 µM | [6] 3.48 µM | [7] > 34 µM | [8] 3.99 µM | [9] 12 µM | [10] 5.13 µM | [11] > 20.6 µM | [12] 3.72 µM | [13] 6.79 µM | [14] 2.81 µM | [15] 7.71 µM | [16] 2.94 µM | [17] 5.75 µM | [18] 6.34 µM | [19] 4.69 µM | [20] 5.48 µM | [21] 4.76 µM | [22] 6.43 µM | [23] 13.2 µM | [24] 8.95 µM | [25] 2.79 µM | [26] 4.6 µM | [27] 11.1 µM | [28] 8.34 µM | [29] 6.28 µM | [30] 4.2 µM | [31] 5.35 µM | [32] 8.11 µM | [33] 6.46 µM | [34] 4.98 µM | [35] 6.08 µM | [36] 6.15 µM | [37] 1.14 µM | [38] 7.43 µM | [39] 3.03 µM | [40] 6.07 µM | [41] > 19.8 µM | [42] 3.89 µM | [43] 2.55 µM | [44] 8.07 µM | [45] 7.85 µM | [46] 3.63 µM | [47] 10.8 µM | [48] 8.75 µM | [49] 5.77 µM | [50] 12.9 µM | [51] 3.57 µM | [52] 4.89 µM | [53] 5.26 µM | [54] 4.7 µM | [56] 7.69 µM | [57] 7.87 µM
4.66 µM: [55]

Fc1ccc(C(OCCN2CCN(CCCc3ccccc3)CC2)c2ccc(F)cc2)cc1
3.45 µM: [55]
inactive: [1] 4.17 µM | [2] 3.26 µM | [3] 3.05 µM | [5] 4.34 µM | [6] 3.34 µM | [7] 3.92 µM | [8] 2.58 µM | [9] 6.04 µM | [10] 3.15 µM | [11] 3.75 µM | [12] 4.26 µM | [58] 3.13 µM | [13] 6.97 µM | [14] 4.06 µM | [15] 9.73 µM | [16] 2.71 µM | [17] 4.19 µM | [18] 4.06 µM | [19] 3.75 µM | [20] 5.77 µM | [21] 5.31 µM | [22] 4.39 µM | [23] 4.8 µM | [24] 2.81 µM | [25] 4.04 µM | [26] 4.11 µM | [27] 4.65 µM | [28] 3.67 µM | [29] 4.5 µM | [30] 5.97 µM | [31] 5.47 µM | [32] 5.82 µM | [34] 9.08 µM | [35] 2.75 µM | [36] 3.65 µM | [37] 2.73 µM | [38] 3.63 µM | [39] 10.4 µM | [40] 3.12 µM | [41] 3.13 µM | [42] 3.99 µM | [43] 3.48 µM | [59] 4.2 µM | [44] 4.18 µM | [46] 4.59 µM | [47] 3.79 µM | [48] 7.05 µM | [49] 4.15 µM | [50] 5.32 µM | [51] 4.15 µM | [52] 4.5 µM | [53] 4.9 µM | [54] 3.58 µM | [56] 3.44 µM | [57] 3.5 µM

COc1cccc(C(=O)C#Cc2cnc(OC)nc2OC)c1
0.2 µM: [55]
active: [3] 0.356 µM | [11] 1.11 µM | [12] 0.155 µM | [58] 1.09 µM | [16] 0.108 µM | [26] 0.753 µM | [27] 0.119 µM | [28] 0.331 µM | [29] 0.0286 µM | [31] 0.504 µM | [39] 0.653 µM | [43] 0.226 µM | [59] 0.682 µM | [46] 0.126 µM | [48] 0.306 µM
inactive: [1] 1.72 µM | [2] 7.66 µM | [5] 9.08 µM | [6] 1.24 µM | [7] 1.7 µM | [8] 2.01 µM | [9] 18.1 µM | [10] 3.41 µM | [13] 8.69 µM | [14] 1.99 µM | [15] 2.04 µM | [17] 3.94 µM | [18] 1.49 µM | [19] 1.8 µM | [20] 1.43 µM | [21] 1.38 µM | [22] 14.2 µM | [23] 2.26 µM | [24] 2.15 µM | [25] 1.98 µM | [30] 5.87 µM | [32] 1.73 µM | [33] 3.18 µM | [34] 1.36 µM | [35] 1.77 µM | [36] 2.84 µM | [37] 1.37 µM | [38] 1.86 µM | [40] 1.21 µM | [41] 1.85 µM | [42] 15.8 µM | [44] 2.49 µM | [45] 1.83 µM | [47] 6.43 µM | [49] 2.36 µM | [50] 13.5 µM | [51] 1.81 µM | [52] 2.91 µM | [53] 1.83 µM | [54] 4.82 µM | [56] 1.37 µM | [57] 2.09 µM
